# Measurements as given in PubChem BioAssay AID1845210 (Molecular Pharmacology Branch, DTP, NCI, 2023).
# Values joined by “and” are separate entries in the source; they are usually repeats but may differ in a detail not shown here. Identical values can stand only once.
# System: NCI-H226 complex tumor spheroids, viability
# Assay: Anticancer human tumor NCI-H226 cell line growth inhibition;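 also: spheroids exposed to compound for 7 days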;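 as to viability, T/C: 100% = DMSO vehicle control viability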
# Conditions: for viability, T/C: stronger effect = lower value
# Procedure, shortened: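 Complex spheroids of malignant cells with endothelial cells and mesenchymal stem cells; agents alone or combined, from near clinical Cmax (or 10 microM if unknown) down in half-log steps, 0.25% DMSO final.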
# [1] = curve of first compound, second compound 30 pM
# [2] = curve of first compound, second compound 94.9 pM
# [3] = curve of first compound, second compound 0.0003 µM
# [4] = curve of first compound, second compound 0.000949 µM
# [5] = curve of first compound, second compound 0.003 µM
# [6] = second compound 30 pM, first compound 0.0316 µM
# [7] = second compound 30 pM, first compound 0.1 µM
# [8] = second compound 30 pM, first compound 0.316 µM
# [9] = second compound 30 pM, first compound 1 µM
# [10] = second compound 30 pM, first compound 3.16 µM
# [11] = second compound 30 pM, first compound 10 µM
# [12] = second compound 94.9 pM, first compound 0.0316 µM
# [13] = second compound 94.9 pM, first compound 0.1 µM
# [14] = second compound 94.9 pM, first compound 0.316 µM
# [15] = second compound 94.9 pM, first compound 1 µM
# [16] = second compound 94.9 pM, first compound 3.16 µM
# [17] = second compound 94.9 pM, first compound 10 µM
# [18] = second compound 0.0003 µM, first compound 0.0316 µM
# [19] = second compound 0.0003 µM, first compound 0.1 µM
# [20] = second compound 0.0003 µM, first compound 0.316 µM
# [21] = second compound 0.0003 µM, first compound 1 µM
# [22] = second compound 0.0003 µM, first compound 3.16 µM
# [23] = second compound 0.0003 µM, first compound 10 µM
# [24] = second compound 0.000949 µM, first compound 0.0316 µM
# [25] = second compound 0.000949 µM, first compound 0.1 µM
# [26] = second compound 0.000949 µM, first compound 0.316 µM
# [27] = second compound 0.000949 µM, first compound 1 µM
# [28] = second compound 0.000949 µM, first compound 3.16 µM
# [29] = second compound 0.000949 µM, first compound 10 µM
# [30] = second compound 0.003 µM, first compound 0.0316 µM
# [31] = second compound 0.003 µM, first compound 0.1 µM
# [32] = second compound 0.003 µM, first compound 0.316 µM
# [33] = second compound 0.003 µM, first compound 1 µM
# [34] = second compound 0.003 µM, first compound 3.16 µM
# [35] = second compound 0.003 µM, first compound 10 µM
smiles,measurement,setting,value
CC(C)n1c(=O)n(C)c2cnc3cc(F)c(-c4ccc(OCCCN5CCCCC5)nc4)cc3c21 + COc1cc2c(cc1O)CCNC21CSC2c3c(OC(C)=O)c(C)c4c(c3C(COC1=O)N1C(O)C3Cc5cc(C)c(OC)c(O)c5C(C21)N3C)OCO4,IC50,[1],9.84 µM
same,IC50,[2],6.75 µM
same,IC50,[3],6.99 µM
same,IC50,[4],6.76 µM
same,IC50,[5],< 0.0316 µM
same,"viability, T/C",[6],110%
same,"viability, T/C",[7],102%
same,"viability, T/C",[8],121%
same,"viability, T/C",[9],110%
same,"viability, T/C",[10],91%
same,"viability, T/C",[11],49.4%
same,"viability, T/C",[12],108%
same,"viability, T/C",[13],102%
same,"viability, T/C",[14],112%
same,"viability, T/C",[15],103%
same,"viability, T/C",[16],90.4%
same,"viability, T/C",[17],29.2%
same,"viability, T/C",[18],107%
same,"viability, T/C",[19],125%
same,"viability, T/C",[20],122%
same,"viability, T/C",[21],102%
same,"viability, T/C",[22],102%
same,"viability, T/C",[23],27.4%
same,"viability, T/C",[24],98.2%
same,"viability, T/C",[25],103%
same,"viability, T/C",[26],104%
same,"viability, T/C",[27],120%
same,"viability, T/C",[28],97.4%
same,"viability, T/C",[29],25.4%
same,"viability, T/C",[30],1.2%
same,"viability, T/C",[31],2.1%
same,"viability, T/C",[32],1.2%
same,"viability, T/C",[33],3.57%
same,"viability, T/C",[34],1.96%
same,"viability, T/C",[35],1%
Cc1sc2c(c1C)C(c1ccc(Cl)cc1)=NC(CC(=O)Nc1ccc(O)cc1)c1nnc(C)n1-2 (stereo unspecified),"viability, T/C",compound 0.00949 µM,80.2% and 99.2% and 85.2%
same,"viability, T/C",compound 0.03 µM,72.7% and 73.6% and 78.2%
same,"viability, T/C",compound 0.0949 µM,79.5% and 64.3% and 96.1%
same,"viability, T/C",compound 0.3 µM,57.7% and 57.8% and 77.4%
same,"viability, T/C",compound 0.949 µM,47.1% and 50.4% and 73.6%
same,"viability, T/C",compound 3 µM,38.5% and 49.4% and 63.2%
same,IC50,curve of compound,0.592 µM and > 3 µM
COc1ccc([C@@H](O)c2cc(-c3ncnc4cc(N5CCOCC5)ccc34)c(F)cc2Cl)nn1,"viability, T/C",compound 0.0316 µM,96.6% and 91% and 98.2%
same,"viability, T/C",compound 0.1 µM,93.2% and 99.9% and 94.4%
same,"viability, T/C",compound 0.316 µM,89.3% and 96.3% and 93.6%
same,"viability, T/C",compound 1 µM,80.3% and 71.2% and 82.1%
same,"viability, T/C",compound 3.16 µM,54.6% and 52.2% and 55.1%
same,"viability, T/C",compound 10 µM,39.5% and 35.6% (2×)
same,IC50,curve of compound,4.63 µM and 3.04 µM and 4.29 µM
CC(C)n1c(=O)n(C)c2cnc3cc(F)c(-c4ccc(OCCCN5CCCCC5)nc4)cc3c21 + Cn1nnc2c(C(N)=O)ncn2c1=O,IC50,"curve of first compound, second compound 1 µM",5.83 µM
same,IC50,"curve of first compound, second compound 3.16 µM",5.92 µM
same,IC50,"curve of first compound, second compound 10 µM",6 µM
same,IC50,"curve of first compound, second compound 31.6 µM",5.72 µM
same,IC50,"curve of first compound, second compound 100 µM",> 10 µM
same,"viability, T/C","second compound 1 µM, first compound 0.0316 µM",111%
same,"viability, T/C","second compound 1 µM, first compound 0.1 µM",115%
same,"viability, T/C","second compound 1 µM, first compound 0.316 µM",120%
same,"viability, T/C","second compound 1 µM, first compound 1 µM",118%
same,"viability, T/C","second compound 1 µM, first compound 3.16 µM",102%
same,"viability, T/C","second compound 1 µM, first compound 10 µM",4.4%
same,"viability, T/C","second compound 3.16 µM, first compound 0.0316 µM",112%
same,"viability, T/C","second compound 3.16 µM, first compound 0.1 µM",113%
same,"viability, T/C","second compound 3.16 µM, first compound 0.316 µM",114%
same,"viability, T/C","second compound 3.16 µM, first compound 1 µM",102%
same,"viability, T/C","second compound 3.16 µM, first compound 3.16 µM",104%
same,"viability, T/C","second compound 3.16 µM, first compound 10 µM",4.91%
same,"viability, T/C","second compound 10 µM, first compound 0.0316 µM",114%
same,"viability, T/C","second compound 10 µM, first compound 0.1 µM",119%
same,"viability, T/C","second compound 10 µM, first compound 0.316 µM",109%
same,"viability, T/C","second compound 10 µM, first compound 1 µM",114%
same,"viability, T/C","second compound 10 µM, first compound 3.16 µM",109%
same,"viability, T/C","second compound 10 µM, first compound 10 µM",3.29%
same,"viability, T/C","second compound 31.6 µM, first compound 0.0316 µM",117%
same,"viability, T/C","second compound 31.6 µM, first compound 0.1 µM",108%
same,"viability, T/C","second compound 31.6 µM, first compound 0.316 µM",110%
same,"viability, T/C","second compound 31.6 µM, first compound 1 µM",99.4%
same,"viability, T/C","second compound 31.6 µM, first compound 3.16 µM",99.9%
same,"viability, T/C","second compound 31.6 µM, first compound 10 µM",3.07%
same,"viability, T/C","second compound 100 µM, first compound 0.0316 µM",122%
same,"viability, T/C","second compound 100 µM, first compound 0.1 µM",115%
same,"viability, T/C","second compound 100 µM, first compound 0.316 µM",115%
same,"viability, T/C","second compound 100 µM, first compound 1 µM",117%
same,"viability, T/C","second compound 100 µM, first compound 3.16 µM",105%
same,"viability, T/C","second compound 100 µM, first compound 10 µM",64%
COc1cc(C)[nH]c(=O)c1CN1CCc2c(Cl)cc(C(OC)C3COC3)c(Cl)c2C1=O (stereo unspecified),"viability, T/C",compound 0.0316 µM,90.2% and 107% and 114%
same,"viability, T/C",compound 0.1 µM,113% and 115% and 102%
same,"viability, T/C",compound 0.316 µM,109% and 125% and 108%
same,"viability, T/C",compound 1 µM,110% and 115% and 102%
same,"viability, T/C",compound 3.16 µM,114% and 134% and 116%
same,"viability, T/C",compound 10 µM,116% and 120% and 108%
same,IC50,curve of compound,> 10 µM
COc1cc(C)[nH]c(=O)c1CN1CCc2c(Cl)cc(C(OC)C3COC3)c(Cl)c2C1=O (stereo unspecified) + COc1cc2c(cc1O)CCNC21CSC2c3c(OC(C)=O)c(C)c4c(c3C(COC1=O)N1C(O)C3Cc5cc(C)c(OC)c(O)c5C(C21)N3C)OCO4,IC50,[1],> 10 µM
same,IC50,[2],> 10 µM
same,IC50,[3],> 10 µM
same,IC50,[4],> 10 µM
same,IC50,[5],< 0.0316 µM
same,"viability, T/C",[6],115%
same,"viability, T/C",[7],131%
same,"viability, T/C",[8],128%
same,"viability, T/C",[9],115%
same,"viability, T/C",[10],126%
same,"viability, T/C",[11],129%
same,"viability, T/C",[12],103%
same,"viability, T/C",[13],113%
same,"viability, T/C",[14],125%
same,"viability, T/C",[15],119%
same,"viability, T/C",[16],127%
same,"viability, T/C",[17],114%
same,"viability, T/C",[18],133%
same,"viability, T/C",[19],133%
same,"viability, T/C",[20],130%
same,"viability, T/C",[21],148%
same,"viability, T/C",[22],140%
same,"viability, T/C",[23],136%
same,"viability, T/C",[24],103%
same,"viability, T/C",[25],119%
same,"viability, T/C",[26],111%
same,"viability, T/C",[27],115%
same,"viability, T/C",[28],114%
same,"viability, T/C",[29],109%
same,"viability, T/C",[30],3.38%
same,"viability, T/C",[31],1.73%
same,"viability, T/C",[32],1.1%
same,"viability, T/C",[33],1.4%
same,"viability, T/C",[34],1.04%
same,"viability, T/C",[35],0.69%
